Measurements as given in US6569403B1, “Determining effects of external stimuli on the brain using PET” (Miicro, Incorporated, priority 1995, dated 2003).
Entries after “also recorded” stand apart in the source; their conditions may differ.

Tests used:
Type in all cases: in vivo
healthy human subjects [1] = assay: Profile of Mood States (POMS): subjective effects; conditions: fluoxetine 40 mg oral versus placebo
From the text: (§1) Ninety minutes after administration of fluoxetine or placebo, subjects were repositioned in the PET scanner and a visual monitoring task (VMT) was initiated. The task assured a stable behavioral condition at the time of testing. Each subject was asked to press a button with his or her right thumb every time a dim light (50% of trials) was presented on a screen mounted in front of him or her and was asked to ignore every bright light (50%). The lights were presented under computer control at random intervals ranging from 4 to 7 sec. Each subjected completed four blocks of 96 trials each (approximately 10 min per block). Subjects also completed the Profile of Mood States (POMS) before the capsule and 20 min after injection of FDG.

healthy human subjects [2] = assay: PET with FDG: cerebral glucose metabolism (CMRglu) under behavioral clamp, drug versus placebo
healthy human subjects [3] = assay: visual monitoring task (VMT): reaction time and accuracy
From the text: as §1

[4] = fluoxetine 40 mg oral versus placebo, voxel t-test images (FIG. 1)
[5] = ethanol 0.5 g/kg versus placebo (tonic water), FIG. 3

Row | SMILES | subjective effects as measured by the POMS (healthy human subjects [1]) | relative glucose metabolism in bilateral amygdaloid complex, hippocampal formation and ventral striatum (healthy human subjects [2]; [4]) | relative glucose metabolism in right superior parietal lobe (Brodmann area 7) (healthy human subjects [2]; [4]) | Average global CMRglu (healthy human subjects [2]; fluoxetine 40 mg oral, FDG about 90 min after dosing, four healthy subjects, mean of all slices) [mg 100 g^1 min^−1] | Average global CMRglu, fluoxetine scans versus placebo scans (healthy human subjects [2]; fluoxetine 40 mg oral, paired two-tailed t-test) | accuracy on the VMT (% correct) (healthy human subjects [3]; after fluoxetine 40 mg oral) | median reaction time on the VMT (healthy human subjects [3]; after fluoxetine 40 mg oral, ± s.d.) [ms] | effects on reaction time or accuracy on the VMT (healthy human subjects [3]; fluoxetine 40 mg oral versus placebo) | rCMglu in frontal and temporal lobes, basal ganglia and limbic system (healthy human subjects [2]; [5]) | rCMglu in the left hemisphere (healthy human subjects [2]; [5])
1 | CNCCC(Oc1ccc(C(F)(F)F)cc1)c1ccccc1 (stereo not shown) [fluoxetine] | no differences | decreased relative glucose metabolism; also recorded: decrease in CMRglu | increased relative metabolism; also recorded: increase in metabolism | 8.22±0.86 | not significantly different | 96.4±3.2 | 553 ± 64 | no systematic effects |  | 
2 | CCO [ethanol] |  |  |  |  |  |  |  |  | affected | widespread increase
